Measured values: patent publication US9732311B2, “Alcoholic compositions having a lowered risk of acetaldehydemia” (Deuteria Beverages, LLC, priority 2009, dated 2017)
Like-named read-outs stand apart in the source and are kept apart here.

What was measured:
horse liver ALDH = conditions: literature (Feldman and Weiner 1972); cited from earlier work
[1] = oral
Method: The subject was a person, 154 kg, with no known abnormalities of ethanol metabolism. Experiments were conducted after an overnight fast. 1,1-Dideuterioethanol, 99 atom % D (CDN Isotopes; Quebec, Canada) (70 mL) was diluted to 500 mL with orange juice, and the resulting beverage was consumed by the subject over the course of five minutes. The mouth and palate were rinsed with orange juice, and data points were then obtained, in triplicate, every 10 minutes with a commercial breath analyzer (AlcoHAWK™ Pro, Q3 Innovations Inc., Independence, Iowa, U.S.A.) The control experiment employed 175 mL of commercial vodka (80 proof; 40% ethanol) but was otherwise identical.
Each data point in the FIGURE is the average of the three measurements taken at each time point.

sheep liver ALDH = conditions: literature (Hart and Dickinson 1978); cited from earlier work

**Q.** For `[2H]C(=O)CC` [propionaldehyde-1-d], which deuterium isotope effect (horse liver ALDH) is on record?
**A.** no isotope effect

**Q.** Which “absorption relative to ethanol having a natural isotopic abundance” value ([1]; human subject, FIG. 1) does the source give for `[2H]C([2H])(C)O` [deuterated ethanol, 1,1-Dideuterioethanol] here?
**A.** substantially retarded

**Q.** And the “areas under the curves of blood level vs time, deuterated vs ordinary ethanol” value ([1]; human subject, FIG. 1)?
**A.** substantially equivalent

**Q.** And the “rate of clearance relative to ethanol having a natural isotopic abundance” value ([1]; human subject, FIG. 1)?
**A.** reduced

**Q.** And the “time after ingestion at which peak blood concentrations of ethanol are reached” value ([1]; human subject, after overnight fast, 70 mL diluted to 500 mL with orange juice)?
**A.** 1 to 2 h

**Q.** And the “reduction of peak blood concentration” value ([1]; human subject, relative to non-deuterated ethanol)?
**A.** 15-20%

**Q.** Which “time after ingestion at which peak blood concentrations of ethanol are reached” value ([1]; human, ordinary ethanol (normally)) does the source give for `CCO` [ethanol, reference compound] here?
**A.** 0.333 to 0.5 h

**Q.** Which deuterium isotope effect (sheep liver ALDH) does the source give for `[2H]C(C)=O` [acetaldehyde-1-d] here?
**A.** no isotope effect
